We go through 19 compounds from patent publication US20260347364A1, “PYRAZOLO[4,3-F]QUINAZOLINE DERIVATIVES AS MODULATORS OF G12D MUTANT KRAS USEFUL FOR THE TREATMENT OF CANCER” (JAZZ PHARMACEUTICALS IRELAND LTD., priority 2023, published 2026).

Bounds are passed on as bounds.

The target in one assay is T1, KRAS G12D (Homo sapiens, UniProt P01116, G12D).
T1 construct: aa1-188 KRAS WT, HRAS WT, NRAS WT, or KRAS containing the G12D
Briefly: HTRF nucleotide exchange assay, KRAS G12D. The format is biochemical. The settings on record: class symbols; for IC50: HTRF nucleotide exchange assay (NEA). (TR-FRET usually uses a lanthanide donor and a delayed reading to cut background.)

The target of the next assay is T2, KRAS WT (Homo sapiens, UniProt P01116).
T2 construct: aa1-188 KRAS WT
Briefly: HTRF nucleotide exchange assay, KRAS WT. The format is biochemical. To be noted: class symbols; for IC50: HTRF nucleotide exchange assay (NEA).

The term IC50 denotes the concentration at which inhibition is half-maximal. For `CCc1c(F)ccc2cc(O)cc(-c3c(F)c4nc(OC[C@@]56CCCN5C[C@H](F)C6)nc(N5CCOC[C@@](C)(O)C5)c4c4cn(C)nc34)c12` [Example 109, (6S)-4-[4-(8-ethyl-7-fluoro-3-hydroxy-1-naphthyl)-5-fluoro-2-methyl-7-[[(2R,8S)-2-fluoro-1,2,3,5,6,7-hexahydropyrrolizin-8-yl]methoxy]pyrazolo[4,3-f]quinazolin-9-yl]-6-methyl-1,4-oxazepan-6-ol], the half-inhibitory concentration (IC50) on KRAS G12D and on KRAS WT was at most 10 nM each time.

As to `CCc1c(F)ccc2cc(O)cc(-c3c(F)c4nc(OC[C@@H]5C[C@@H](F)CN5)nc(N5CCOCC(C)(O)C5)c4c4cn(C)nc34)c12` (stereo partly drawn) [Example 150, 4-[4-(8-ethyl-7-fluoro-3-hydroxy-1-naphthyl)-5-fluoro-2-methyl-7-[[(2S,4R)-4-fluoropyrrolidin-2-yl]methoxy]pyrazolo[4,3-f]quinazolin-9-yl]-6-methyl-1,4-oxazepan-6-ol], the IC50 at KRAS G12D and at KRAS WT was at most 10 nM each time.

On to `CCc1c(F)ccc2cc(O)cc(-c3c(F)c4nc(OCC5(CN6CCC(C(F)(F)F)CC6)CC5)nc(N5CCOCC(C)(O)C5)c4c4cn(C)nc34)c12` (centres unmarked) [Example 218, 4-[4-(8-ethyl-7-fluoro-3-hydroxy-1-naphthyl)-5-fluoro-2-methyl-7-[[1-[[4-(trifluoromethyl)-1-piperidyl]methyl]cyclopropyl]methoxy]pyrazolo[4,3-f]quinazolin-9-yl]-6-methyl-1,4-oxazepan-6-ol], for which the half-maximal inhibitory concentration (IC50) against KRAS G12D and against KRAS WT was at most 10 nM throughout.

Regarding `Cn1cc2c(n1)c(-c1cccc3sc(N)c(C#N)c13)cc1nc(OC[C@@]34CCCN3C[C@H](F)C4)nc(N3CCCOCC3)c12` [Example 3, 2-amino-4-[2-methyl-9-(1,4-oxazepan-4-yl)-7-[[(2R,8S)-2-fluoro-1,2,3,5,6,7-hexahydropyrrolizin-8-yl]methoxy]pyrazolo[4,3-f]quinazolin-4-yl]benzothiophene-3-carbonitrile], on KRAS G12D, the “KRAS^G12D NEA” value is “D (<49% inhibition at 10 μM)”. Also, the IC50 at KRAS WT lay within 100 to 10000 nM.

With `CCc1c(F)ccc2cc(O)cc(-c3c(F)c4nc(OC[C@@]56CCCN5C[C@H](F)C6)nc(N5CCCn6nc(C(=O)N7CCCC7)cc6C5)c4c4cn(C)nc34)c12` [Example 197, [5-[4-(8-ethyl-7-fluoro-3-hydroxy-1-naphthyl)-5-fluoro-7-[[(2R,8S)-2-fluoro-1,2,3,5,6,7-hexahydropyrrolizin-8-yl]methoxy]-2-methyl-pyrazolo[4,3-f]quinazolin-9-yl]-4,6,7,8-tetrahydropyrazolo[1,5-a][1,4]diazepin-2-yl]-pyrrolidin-1-yl-methanone], the IC50 against KRAS G12D and at KRAS WT was at most 10 nM throughout.

On to `CCc1c(F)ccc2cc(O)cc(-c3c(F)c4nc(OCC5COCCN5)nc(N5CCOCC(C)(O)C5)c4c4cn(C)nc34)c12` (centres unmarked) [Example 233, 4-[4-(8-ethyl-7-fluoro-3-hydroxy-1-naphthyl)-5-fluoro-2-methyl-7-(morpholin-3-ylmethoxy)pyrazolo[4,3-f]quinazolin-9-yl]-6-methyl-1,4-oxazepan-6-ol], for which the IC50 on KRAS G12D is at most 10 nM; at KRAS WT, 10 to 100 nM.

For `CCc1c(F)ccc2cc(O)cc(-c3cc4nc(OC[C@@]56CCCN5C[C@H](F)C6)nc(N5CCC6CC6(O)C5)c4c4cn(C)nc34)c12` (stereo partly drawn) [Example 127, 3-[4-(8-ethyl-7-fluoro-3-hydroxy-1-naphthyl)-2-methyl-7-[[(2R,8S)-2-fluoro-1,2,3,5,6,7-hexahydropyrrolizin-8-yl]methoxy]pyrazolo[4,3-f]quinazolin-9-yl]-3-azabicyclo[4.1.0]heptan-1-ol], the IC50 at KRAS G12D and on KRAS WT was 10 to 100 nM throughout.

Turning to `CCc1c(F)ccc2cc(O)cc(-c3c(C)c4nc(OCC5(C)C[C@@H](O)CN5C)nc(N5CCOCC(C)(O)C5)c4c4cn(C)nc34)c12` (stereo partly drawn) [Example 141, 4-[4-(8-ethyl-7-fluoro-3-hydroxy-1-naphthyl)-2,5-dimethyl-7-[[(4R)-4-hydroxy-1,2-dimethyl-pyrrolidin-2-yl]methoxy]pyrazolo[4,3-f]quinazolin-9-yl]-6-methyl-1,4-oxazepan-6-ol], the IC50 on KRAS G12D and at KRAS WT was at most 10 nM each time.

`Cc1c(-c2ncc(F)c3sc(N)c(C#N)c23)c2nn(C)cc2c2c(N3CCOCC(C)(O)C3)nc(OC[C@@]34CCCN3C[C@H](F)C4)nc12` (stereo partly drawn) [Example 108, 2-amino-7-fluoro-4-[7-[[(2R,8S)-2-fluoro-1,2,3,5,6,7-hexahydropyrrolizin-8-yl]methoxy]-9-(6-hydroxy-6-methyl-1,4-oxazepan-4-yl)-2,5-dimethyl-pyrazolo[4,3-f]quinazolin-4-yl]thieno[3,2-c]pyridine-3-carbonitrile]: the IC50 on KRAS G12D and against KRAS WT was 100 to 10000 nM in each case.

`CCc1c(F)ccc2cc(O)cc(-c3c(F)c4nc(OCC56CCCN5CC(=C(F)F)C6)nc(N5CCOCC(C)(O)C5)c4c4cn(C)nc34)c12` (centres unmarked) [Example 235, 4-[7-[[6-(difluoromethylene)-2,3,5,7-tetrahydro-1H-pyrrolizin-8-yl]methoxy]-4-(8-ethyl-7-fluoro-3-hydroxy-1-naphthyl)-5-fluoro-2-methyl-pyrazolo[4,3-f]quinazolin-9-yl]-6-methyl-1,4-oxazepan-6-ol]: the IC50 on KRAS G12D and against KRAS WT was at most 10 nM throughout.

As to `CCc1c(F)ccc2cc(O)cc(-c3c(C)c4nc(OC[C@]5(C)CCCN5)nc(N5CCOCC(C)(O)C5)c4c4cn(C)nc34)c12` (stereo partly drawn) [Example 139, 4-[4-(8-ethyl-7-fluoro-3-hydroxy-1-naphthyl)-2,5-dimethyl-7-[[(2S)-2-methylpyrrolidin-2-yl]methoxy]pyrazolo[4,3-f]quinazolin-9-yl]-6-methyl-1,4-oxazepan-6-ol], the IC50 against KRAS G12D and against KRAS WT was at most 10 nM each time.

As for `CCc1c(F)ccc2cc(O)cc(-c3cc4nc(OC[C@@]56CCCN5C[C@H](F)C6)nc(N5CCOC[C@](C)(O)C5)c4c4cn(C)nc34)c12` [Example 41, (6R)-4-[4-(8-ethyl-7-fluoro-3-hydroxy-1-naphthyl)-2-methyl-7-[[(2R,8S)-2-fluoro-1,2,3,5,6,7-hexahydropyrrolizin-8-yl]methoxy]pyrazolo[4,3-f]quinazolin-9-yl]-6-methyl-1,4-oxazepan-6-ol], the half-maximal inhibitory concentration (IC50) against KRAS G12D and on KRAS WT was 10 to 100 nM each time.

`Cn1cc2c(n1)c(-c1cccc3sc(N)c(C#N)c13)cc1nc(OC[C@@]34CCCN3C[C@H](F)C4)nc(N3CC4CCC(C3)N4)c12` [Example 86, 2-amino-4-[9-(3,8-diazabicyclo[3.2.1]octan-3-yl)-7-[[(2R,8S)-2-fluoro-1,2,3,5,6,7-hexahydropyrrolizin-8-yl]methoxy]-2-methyl-pyrazolo[4,3-f]quinazolin-4-yl]benzothiophene-3-carbonitrile] returned an IC50 against KRAS G12D of at most 10 nM. Moreover, the “KRAS^WT NEA” value at KRAS WT is on record as “D (<49% inhibition at 10 μM)”.

Regarding `CCc1c(F)ccc2cc(O)cc(-c3c(C)c4nc(OCC56CCCN5CCC6)nc(N5CCOCC(C)(O)C5)c4c4cn(C)nc34)c12` (centres unmarked) [Example 147, 4-[4-(8-ethyl-7-fluoro-3-hydroxy-1-naphthyl)-7-(1,2,3,5,6,7-hexahydropyrrolizin-8-ylmethoxy)-2,5-dimethyl-pyrazolo[4,3-f]quinazolin-9-yl]-6-methyl-1,4-oxazepan-6-ol], the IC50 on KRAS G12D and against KRAS WT was at most 10 nM each time.

As for `CCc1c(F)ccc2cc(O)cc(-c3c(F)c4nc(OC[C@@]56CCCN5C[C@H](F)C6)nc(N5C[C@H]6COC[C@@H]6C5)c4c4cn(C)nc34)c12` [Example 175, 5-ethyl-6-fluoro-4-[5-fluoro-2-methyl-9-[(3aS,6aS)-1,3,3a,4,6,6a-hexahydrofuro[3,4-c]pyrrol-5-yl]-7-[[(2R,8S)-2-fluoro-1,2,3,5,6,7-hexahydropyrrolizin-8-yl]methoxy]pyrazolo[4,3-f]quinazolin-4-yl]naphthalen-2-ol], the IC50 against KRAS G12D lay in the range of 100 to 10000 nM; on KRAS WT it was 10 to 100 nM.

On KRAS G12D, `CCc1c(F)ccc2cc(O)cc(-c3c(F)c4nc(OCC5(CN(C)CC(F)(F)F)CC5)nc(N5CCOCC(C)(O)C5)c4c4cn(C)nc34)c12` (centres unmarked) [Example 192, 4-[4-(8-ethyl-7-fluoro-3-hydroxy-1-naphthyl)-5-fluoro-2-methyl-7-[[1-[[methyl(2,2,2-trifluoroethyl)amino]methyl]cyclopropyl]methoxy]pyrazolo[4,3-f]quinazolin-9-yl]-6-methyl-1,4-oxazepan-6-ol] came in with an IC50 of 100 to 10000 nM. The “KRAS^WT NEA” value on KRAS WT is “D (<49% inhibition at 10 μM)”.

For `CCc1c(F)ccc2cc(O)cc(-c3cc4nc(OC[C@@]56CCCN5C[C@H](F)C6)nc(N5CCCCC(C)(O)C5)c4c4cn(C)nc34)c12` (stereo partly drawn) [Example 10, 1-[4-(8-ethyl-7-fluoro-3-hydroxy-1-naphthyl)-2-methyl-7-[[(2R,8S)-2-fluoro-1,2,3,5,6,7-hexahydropyrrolizin-8-yl]methoxy]pyrazolo[4,3-f]quinazolin-9-yl]-3-methyl-azepan-3-ol], the IC50 at KRAS G12D and on KRAS WT was at most 10 nM throughout.

For the compound `CCc1c(F)ccc2cc(O)cc(-c3c(C)c4nc(OC[C@@]56CCCN5C[C@H](F)C6)nc(N5CC6CCC5CN6)c4c4cn(C)nc34)c12` (stereo partly drawn) [Example 216, 4-[9-(2,5-diazabicyclo[2.2.2]octan-2-yl)-2,5-dimethyl-7-[[(2R,8S)-2-fluoro-1,2,3,5,6,7-hexahydropyrrolizin-8-yl]methoxy]pyrazolo[4,3-f]quinazolin-4-yl]-5-ethyl-6-fluoro-naphthalen-2-ol], the IC50 at KRAS G12D and on KRAS WT was at most 10 nM in each case.

As for `CCc1c(F)ccc2cc(O)cc(-c3c(C)c4nc(OCC5(C)CC(O)CN5)nc(N5CCOCC(C)(O)C5)c4c4cn(C)nc34)c12` (centres unmarked) [Example 145, 4-[4-(8-ethyl-7-fluoro-3-hydroxy-1-naphthyl)-7-[(4-hydroxy-2-methyl-pyrrolidin-2-yl)methoxy]-2,5-dimethyl-pyrazolo[4,3-f]quinazolin-9-yl]-6-methyl-1,4-oxazepan-6-ol], the IC50 against KRAS G12D and at KRAS WT was at most 10 nM throughout.
